Laboratory results taken from US11713320B2, “5-heteroaryl substituted indazole-3-carboxamides and preparation and use thereof” (BioSplice Therapeutics, Inc., priority 2018, dated 2023).
Blank lines part the entries; values can stand above or below the compound they belong to.

Tests used:
[1] = test system: primary human fibroblasts derived from IPF patients (LL29 cells) treated with TGF-β1; assay: Inhibition of the fibrotic process: αSMA staining in TGF-β1 treated LL29 fibroblasts; assay type: cell-based; settings: % cells positive for αSMA, TGF-β1 20 ng/mL, 4 days
Method: Representative compounds were screened using primary human fibroblasts (derived from IPF patients) treated with TGF-β1 to determine their ability to inhibit the fibrotic process.
LL29 cells were plated at 1,500 cells/well in 70 μL/well F12 medium supplemented with 1% Fetal Bovine Serum. […] Wells treated with TGF-β1 and containing DMSO were used as positive control, and cells with only DMSO were negative control. […] Following incubation for 4 days, SYTOX green nucleic acid stain (Life Technologies [Thermo Fisher Scientific]) was added to the wells at a final concentration of 1 μM and incubated at room temperature for 30 min.

[2] = test system: Wnt activity (Sp5-Luc reporter, TCF/LEF binding sites) in SW480 colon carcinoma cells; assay: Screening assay for Wnt activity: Sp5-Luc reporter gene assay in SW480 cells; assay type: cell-based, human; settings: 36 to 48 hours
Text: The screening assay for Wnt activity is described as follows. Reporter cell lines can be generated by stably transducing cancer cell lines (e.g., colon cancer) or primary cells (e.g., IEC-6 intestinal cells) with a lentiviral construct that includes a Wnt-responsive promoter driving expression of the firefly luciferase gene.
SW480 colon carcinoma cells were transduced with a lentiviral vector expressing luciferase with a human Sp5 promoter consisting of a sequence of eight TCF/LEF binding sites. SW480 cells stably expressing the Sp5-Luc reporter gene and a hygromycin resistance gene were selected by treatment with 150 μg/mL of hygromycin for 7 days. These stably transduced SW480 cells were expanded in cell culture and used for all further screening activities. […] For Sp5-Luc reporter gene assays, the cells were plated at 4,000 cells/well in 384-well plates with a DMEM medium containing 1% fetal bovine serum, and 1% Penicillin-Streptomycin and incubated for 36 to 48 hours at 37° C. and 5% CO2. Following incubation, 15 μl of BriteLite Plus luminescence reagent (Perkin Elmer) was added to each well of the 384-well assay plates. The plates were placed on an orbital shaker for 2 min and then luminescence was quantified using the Envision (Perkin Elmer) plate reader. Readings were normalized to DMSO only treated cells, and normalized activities were utilized for EC50 calculations using the dose-response log (inhibitor) vs. response variable slope (four parameters) nonlinear regression feature available in GraphPad Prism 5.0 (or Dotmatics).

[3] = test system: SW480 colon carcinoma cells; assay: Cell viability assay (CellTiter-Glo) in SW480 cells; assay type: cell-based, human; settings: four days
Method: Representative compounds were screened using the assay procedure to assess the effect on cell viability as described below.
SW480 colon carcinoma cells were transduced with a lentiviral vector expressing luciferase with a human Sp5 promoter consisting of a sequence of eight TCF/LEF binding sites. SW480 cells stably expressing the Sp5-Luc reporter gene and a hygromycin resistance gene were selected by treatment with 150 μg/mL of hygromycin for 7 days. These stably transduced SW480 cells were expanded in cell culture and used for all further screening activities.
For the Cell Viability Assays, the cells were plated at 2,000 cells/well in 384-well plates with a DMEM medium containing 1% fetal bovine serum, and 1% Penicillin-Streptomycin and incubated for […] at 37° C. and 5% CO2. Eight replicates of DMSO-treated cells served as controls and cells treated with compound were performed in duplicate.
After incubation, 10 μL of CellTiter-Glo (Promega) was added to each well allowed to incubate for approximately 12 minutes. This reagent “results in cell lysis and generation of a luminescent signal proportional to the amount of ATP present. The amount of ATP is directly proportional to the number of cells present in culture, in agreement with previous reports. The CellTiter-Glo® Assay generates a “glow-type” luminescent signal, produced by the luciferase reaction (Promega.com)”.

[4] = test system: primary human mesenchymal stem cells (hMSCs); assay: Tenocyte differentiation assay in hMSCs (SCXA staining); assay type: cell-based; settings: given for EC50 of >100 μM; not defined in the method
Text: Representative compounds were screened using primary human mesenchymal stem cells (hMSCs) to determine their ability to induce tenocyte differentiation (process by which tendon is developed).
Human Mesenchymal Stem Cell Culture: Primary human mesenchymal stem cells (hMSCs) were purchased from Lonza (Walkersville, Md.) and expanded in Mesenchymal Stem Cell Growth Media (Lonza). Cells between passage 3 and 6 were used for the experiments.
Cells were fixed using 4% formaldehyde (Electron Microscopy Sciences), and stained with anti-Sclerasis (anti-SCXA) antibodies (Abgent, San Diego, Calif.) [Webb S., et. al., Retinoic acid receptor signaling preserves tendon stem cell characteristics and prevents spontaneous differentiation in vitro, Stem Cell Research & Therapy 2016, 7:45] overnight at 4° C. […] Number of cells positive for SCXA in each well was quantified using the CellInsight CX5. Data was normalized to the average of 12 DMSO treated wells on the same plate using Dotmatics Studies module. The normalized averages (fold change over DMSO) of 3 replicate wells for each compound concentration were calculated. Due to solubility limitations of some of the compounds, values for higher doses were manually corrected and curve fitting and EC50 determinations were performed using Dotmatics Studies.

IL-6 = IL-6 inhibition in LPS-stimulated human PBMCs (HTRF); assay type: cell-based; settings: PBMC; for EC50: IL-6, huPBMCs, LPS 50 ng/mL, 22 hours
Method: Human Peripheral Blood Mononuclear Cells: Fresh Normal PB MNC (Catalog #PB001, AllCells, Alameda, Calif.) were shipped overnight at 4° C. and resuspended in Roswell Park Memorial Institute (RPMI) 1640 Medium, with GlutaMAX Supplement (Catalog #61870127, ThermoFisher Scientific, Waltham, Mass.) supplemented with 1% Penicillin-Streptomycin (Catalog #15140163, ThermoFisher Scientific, Waltham, Mass.) and 1% fetal bovine serum (FBS) (Catalog #16140089, ThermoFisher Scientific, Waltham, Mass.) assay media.
Compound Screening: Fresh normal human peripheral blood mononuclear cells (huPBMCs) were resuspended in 1% FBS-RPMI assay media with 1% Penicillin-Streptomycin 1% to a cell concentration of 1×10e6 cells/mL. […] 50 ng/mL of Lipopolysaccharides from Escherichia coli 0111:B4 (Catalog #L5293-2ML, Sigma-Aldrich, St. Louis, Mo.) was added after 2 hours and cells were incubated for another 22 hours at 37° C.-5% CO2. After 22 hour incubation, a mixture of anti-IL6 XL665 and anti-IL-6 Cryptate diluted in reconstitution buffer (Catalog #62IL6PEC, Cisbio Inc., Bedford, Mass.) was added to each well. Following incubation for 3 hours at room temperature, Homogeneous Time-Resolved Fluorescence (HTRF) was measured using the Envision (Perkin Elmer, Shelton, Conn.) at 665 nm and […]. The ratio of fluorescence at 665 nm to 620 nm was used as a readout for IL-6 quantification. All samples were processed in duplicate. Readings were normalized to DMSO treated cells and normalized activities were utilized for EC50 calculations. EC50 was determined using software generated by Dotmatics Limited (Windhill Bishops Stortford Herts, UK) using the Levenberg-Marquardt 4 parameter fitting procedure with finite different gradients.

Compound: CN1CCN(c2cccc(NC(=O)c3n[nH]c4cc(F)c(-c5cnn(C)c5)cc34)c2)CC1 [Compound 149, 6-Fluoro-5-(1-methyl-1H-pyrazol-4-yl)-N-(3-(4-methylpiperazin-1-yl)phenyl)-1H-indazole-3-carboxamide]
percent value in parentheses beside EC50 >100 [4]: (36.0%)

Compound: Cc1cc(NC(=O)c2n[nH]c3ccc(-c4cnn(C5CCN(C)CC5)c4)cc23)sn1 [Compound 143, N-(3-Methylisothiazol-5-yl)-5-(1-(1-methylpiperidin-4-yl)-1H-pyrazol-4-yl)-1H-indazole-3-carboxamide]
percent value in parentheses beside EC50 >100 [4]: (23.0%)

Compound: C[C@H]1C[C@H](NC(=O)c2n[nH]c3ccc(-c4cnn(C)c4)cc23)CCN1CC(C)(C)F [Compound 44, N-((2S,4R)-1-(2-fluoro-2-methylpropyl)-2-methylpiperidin-4-yl)-5-(1-methyl-1H-pyrazol-4-yl)-1H-indazole-3-carboxamide]
EC50 (IL-6): 1030 nM
EC50 ([1]; Homo sapiens, Fibroblast, 96 h): 199 nM
EC50 ([2]; Homo sapiens): 279 nM
EC50 ([3]; Homo sapiens, 96 h): 1520 nM

Compound: O=C(Nc1ccc(F)cc1)c1n[nH]c2ccc(-c3cnc4n3CCNC4)cc12 [Compound 52, N-(4-Fluorophenyl)-5-(5,6,7,8-tetrahydroimidazo[1,2-a]pyrazin-3-yl)-1H-indazole-3-carboxamide]
EC50 ([1]; Homo sapiens, Fibroblast, 96 h): 540 nM

Compound: Cc1ncc(-c2ccc3[nH]nc(C(=O)NC4CCN(CC(C)(C)F)CC4)c3c2)n1C [Compound 42, 5-(1,2-Dimethyl-1H-imidazol-5-yl)-N-(1-(2-fluoro-2-methylpropyl)piperidin-4-yl)-1H-indazole-3-carboxamide]
EC50 (IL-6): > 10000 nM
inhibition at 10 µM (IL-6; read-out: percent inhibition at 10 μM): 10.4%
EC50 ([1]; Homo sapiens, Fibroblast, 96 h): 1360 nM
EC50 ([2]; Homo sapiens): 507 nM
EC50 ([3]; Homo sapiens, 96 h): > 10000 nM

Now from value to compound, other results behind:

EC50 [2]: > 10000 nM
EC50 [3]: > 10000 nM
Compound: CC(C)(F)CN1CCC(n2cc(-c3ccc4[nH]nc(C(=O)Nc5ccc(OC(F)F)cc5)c4c3)cn2)CC1 [Compound 61, N-(4-(difluoromethoxy)phenyl)-5-(1-(1-(2-fluoro-2-methylpropyl)piperidin-4-yl)-1H-pyrazol-4-yl)-1H-indazole-3-carboxamide]
EC50 [1]: 9 nM

percent value in parentheses beside EC50 >100 [4]: (21.2%)
Compound: 5-(1,2-Dimethyl-1H-imidazol-5-yl)-N-(2-methylthiazol-5-yl)-1H-indazole-3-carboxamide [Compound 139]

percent value in parentheses beside EC50 >100 [4]: (21.0%)
Compound: Cn1cc(-c2cc3c(C(=O)Nc4cccc(OCCN5CCCC5)c4)n[nH]c3cc2F)cn1 [Compound 154, 6-Fluoro-5-(1-methyl-1H-pyrazol-4-yl)-N-(3-(2-(pyrrolidin-1-yl)ethoxy)phenyl)-1H-indazole-3-carboxamide]

percent value in parentheses beside EC50 >100 [4]: (3.5%)
Compound: CN1CCC(Oc2cccc(NC(=O)c3n[nH]c4cc(F)c(-c5cnn(C)c5)cc34)c2)CC1 [Compound 151, 6-Fluoro-5-(1-methyl-1H-pyrazol-4-yl)-N-(3-((1-methylpiperidin-4-yl)oxy)phenyl)-1H-indazole-3-carboxamide]

percent value in parentheses beside EC50 >100 [4]: (2.9%)
Compound: Cc1ncc(-c2ccc3[nH]nc(C(=O)Nc4ccc(OC5CCN(C)CC5)cc4)c3c2)s1 [Compound 82, N-(4-((1-Methylpiperidin-4-yl)oxy)phenyl)-5-(2-methylthiazol-5-yl)-1H-indazole-3-carboxamide]

percent value in parentheses beside EC50 >100 [4]: (13.0%)
Compound: CN1CCC(Oc2ccc(NC(=O)c3n[nH]c4c(F)cc(-c5cnn(C)c5)cc34)cn2)CC1 [Compound 129, 7-Fluoro-5-(1-methyl-1H-pyrazol-4-yl)-N-(6-((1-methylpiperidin-4-yl)oxy)pyridin-3-yl)-1H-indazole-3-carboxamide]

percent value in parentheses beside EC50 >100 [4]: (33.0%)
Compound: Cn1cc(-c2cc(F)c3[nH]nc(C(=O)NC4CCN(CC(F)F)CC4)c3c2)cn1 [Compound 101, N-(1-(2,2-Difluoroethyl)piperidin-4-yl)-7-fluoro-5-(1-methyl-1H-pyrazol-4-yl)-1H-indazole-3-carboxamide]
